Data reported in patent US4731451A, “N-((2-oxo-3(2H)benzothiazolyl)methyl)-2-chloroacetanilides” (Monsanto Company, priority 1980, dated 1988).

Tests used:
Format in all cases: in vivo
[1] = test system: Barnyardgrass; test: Pre-emergent herbicidal activity (Table II); conditions: 2-3 weeks
Outline: (§1)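 Treated soil cover layer (known amount of active ingredient, solvent or wettable powder) applied over seeds/propagules in pans. Greenhouse bench, watered from below; injury rated at ~2-3 weeks.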

[2] = test system: Canada Thistle; test: Pre-emergent herbicidal activity (Table II); conditions: 2-3 weeks
Outline: as §1

[3] = test system: Cocklebur; test: Pre-emergent herbicidal activity (Table II); conditions: 2-3 weeks
Outline: as §1

[4] = test system: Downy Brome; test: Pre-emergent herbicidal activity (Table II); conditions: 2-3 weeks
Outline: as §1

[5] = test system: Johnsongrass; test: Pre-emergent herbicidal activity (Table II); conditions: 2-3 weeks
Outline: as §1

[6] = test system: Lambsquarters; test: Pre-emergent herbicidal activity (Table II); conditions: 2-3 weeks
Outline: as §1

[7] = test system: Morningglory; test: Pre-emergent herbicidal activity (Table II); conditions: 2-3 weeks
Outline: as §1

[8] = test system: Quackgrass; test: Pre-emergent herbicidal activity (Table II); conditions: 2-3 weeks
Outline: as §1

[9] = test system: Smartweed; test: Pre-emergent herbicidal activity (Table II); conditions: 2-3 weeks
Outline: as §1

[10] = test system: Velvetleaf; test: Pre-emergent herbicidal activity (Table II); conditions: 2-3 weeks
Outline: as §1

[11] = test system: Yellow Nutsedge; test: Pre-emergent herbicidal activity (Table II); conditions: 2-3 weeks
Outline: as §1

[12] = test system: Barnyardgrass; test: Pre-emergent herbicidal activity (Table III)
Experimental: (§2) The pre-emergence tests are conducted as follows:
(§3) A good grade of top soil is placed in aluminum pans and compacted to a depth of three-eighths to one-half inch from the top of the pan. On the top of the soil is placed a predetermined number of seeds or vegetative propagules of various plant species. The soil required to level fill the pans after seeding or adding vegetative propagules is weighed into a pan. A known amount of the active ingredient applied in a solvent or as a wettable powder suspension and the soil are thoroughly mixed, and used as a cover layer for prepared pans. After treatment, the pans are moved into a greenhouse bench where they are watered from below as needed to give adequate moisture for germination and growth.
(§4) Approximately 2-3 weeks after seeding and treating, the plants are observed and the results recorded. The herbicidal rating is obtained by means of fixed scale based on the percent injury of each plant species. The ratings are defined as follows: […]
(§5) The compounds were further tested by utilizing the above procedure on the following plant species: […]

[13] = test system: Cocklebur; test: Pre-emergent herbicidal activity (Table III)
Experimental: as §2, §3, §4, §5

[14] = test system: Crabgrass; test: Pre-emergent herbicidal activity (Table III)
Experimental: as §2, §3, §4, §5

[15] = test system: Downy Brome; test: Pre-emergent herbicidal activity (Table III)
Experimental: as §2, §3, §4, §5

[16] = test system: Hemp Sesbania; test: Pre-emergent herbicidal activity (Table III)
Experimental: as §2, §3, §4, §5

[17] = test system: Lambsquarters; test: Pre-emergent herbicidal activity (Table III)
Experimental: as §2, §3, §4, §5

[18] = test system: Morningglory; test: Pre-emergent herbicidal activity (Table III)
Experimental: as §2, §3, §4, §5

[19] = test system: Panicum; test: Pre-emergent herbicidal activity (Table III)
Experimental: as §2, §3, §4, §5

[20] = test system: Rice; test: Pre-emergent herbicidal activity (Table III)
Experimental: as §2, §3, §4, §5

[21] = test system: Smartweed; test: Pre-emergent herbicidal activity (Table III)
Experimental: as §2, §3, §4, §5

[22] = test system: Sorghum; test: Pre-emergent herbicidal activity (Table III)
Experimental: as §2, §3, §4, §5

[23] = test system: Soybean; test: Pre-emergent herbicidal activity (Table III)
Experimental: as §2, §3, §4, §5

[24] = test system: Sugarbeet; test: Pre-emergent herbicidal activity (Table III)
Experimental: as §2, §3, §4, §5

[25] = test system: Velvetleaf; test: Pre-emergent herbicidal activity (Table III)
Experimental: as §2, §3, §4, §5

[26] = test system: Wheat; test: Pre-emergent herbicidal activity (Table III)
Experimental: as §2, §3, §4, §5

[27] = test system: Wild Buckwheat; test: Pre-emergent herbicidal activity (Table III)
Experimental: as §2, §3, §4, §5
Note: ranges in brackets are in %.

In the case of `CC1=C(N(Cn2c(=O)sc3ccccc32)C(=O)CCl)CCCC1` [Example 10, N--[(2-oxo-3(2H)--benzothiazolyl)methyl]-N--(2-methyl-1-cyclohexen-1-yl)-2-chloro-amide], the Herbicidal rating ([1]; 5.6 kg/ha) was 3 (75-100), the Herbicidal rating ([1]; 11.2 kg/ha) was 3 (75-100) and the Herbicidal rating ([2]; 5.6 kg/ha) was 0 (0-24). The Herbicidal rating ([2]; 11.2 kg/ha) was 0 (0-24), the Herbicidal rating ([3]; 5.6 kg/ha) was 0 (0-24) and the Herbicidal rating ([3]; 11.2 kg/ha) was 0 (0-24). The Herbicidal rating ([4]; 5.6 kg/ha) was 3 (75-100), the Herbicidal rating ([4]; 11.2 kg/ha) was 3 (75-100) and the Herbicidal rating ([5]; 5.6 kg/ha) was 0 (0-24). For the same compound, the Herbicidal rating ([5]; 11.2 kg/ha) was 0 (0-24), the Herbicidal rating ([6]; 5.6 kg/ha) was 0 (0-24) and the Herbicidal rating ([6]; 11.2 kg/ha) was 0 (0-24). For the same compound, the Herbicidal rating ([7]; 5.6 kg/ha) was 3 (75-100), the Herbicidal rating ([7]; 11.2 kg/ha) was 1 (25-49) and the Herbicidal rating ([8]; 5.6 kg/ha) was 3 (75-100). The Herbicidal rating ([8]; 11.2 kg/ha) was 0 (0-24), the Herbicidal rating ([9]; 5.6 kg/ha) was 0 (0-24) and the Herbicidal rating ([9]; 11.2 kg/ha) was 0 (0-24). The Herbicidal rating ([10]; 5.6 kg/ha) was 0 (0-24), the Herbicidal rating ([10]; 11.2 kg/ha) was 0 (0-24) and the Herbicidal rating ([11]; 5.6 kg/ha) was 1 (25-49). For the same compound, the Herbicidal rating ([11]; 11.2 kg/ha) was 1 (25-49), the Herbicidal rating ([12]; 0.056 kg/ha) was 3 (75-100) and the Herbicidal rating ([12]; 0.28 kg/ha) was 3 (75-100). The Herbicidal rating ([12]; 1.12 kg/ha) was 2 (50-74), the Herbicidal rating ([12]; 5.6 kg/ha) was 3 (75-100) and the Herbicidal rating ([13]; 0.056 kg/ha) was 0 (0-24). The Herbicidal rating ([13]; 0.28 kg/ha) was 0 (0-24), the Herbicidal rating ([13]; 1.12 kg/ha) was 0 (0-24) and the Herbicidal rating ([13]; 5.6 kg/ha) was 0 (0-24). For the same compound, the Herbicidal rating ([14]; 0.056 kg/ha) was 3 (75-100), the Herbicidal rating ([14]; 0.28 kg/ha) was 3 (75-100) and the Herbicidal rating ([14]; 1.12 kg/ha) was 3 (75-100). For the same compound, the Herbicidal rating ([14]; 5.6 kg/ha) was 3 (75-100), the Herbicidal rating ([15]; 0.056 kg/ha) was 0 (0-24) and the Herbicidal rating ([15]; 0.28 kg/ha) was 0 (0-24). For the same compound, the Herbicidal rating ([15]; 1.12 kg/ha) was 0 (0-24), the Herbicidal rating ([15]; 5.6 kg/ha) was 2 (50-74) and the Herbicidal rating ([16]; 0.056 kg/ha) was 0 (0-24). The Herbicidal rating ([16]; 0.28 kg/ha) was 0 (0-24), the Herbicidal rating ([16]; 1.12 kg/ha) was 0 (0-24) and the Herbicidal rating ([16]; 5.6 kg/ha) was 0 (0-24). The Herbicidal rating ([17]; 0.056 kg/ha) was 1 (25-49), the Herbicidal rating ([17]; 0.28 kg/ha) was 0 (0-24) and the Herbicidal rating ([17]; 1.12 kg/ha) was 1 (25-49). The Herbicidal rating ([17]; 5.6 kg/ha) was 3 (75-100), the Herbicidal rating ([18]; 0.056 kg/ha) was 0 (0-24) and the Herbicidal rating ([18]; 0.28 kg/ha) was 0 (0-24). For the same compound, the Herbicidal rating ([18]; 1.12 kg/ha) was 0 (0-24), the Herbicidal rating ([18]; 5.6 kg/ha) was 0 (0-24) and the Herbicidal rating ([19]; 0.056 kg/ha) was 0 (0-24). For the same compound, the Herbicidal rating ([19]; 0.28 kg/ha) was 0 (0-24), the Herbicidal rating ([19]; 1.12 kg/ha) was 0 (0-24) and the Herbicidal rating ([19]; 5.6 kg/ha) was 2 (50-74). The Herbicidal rating ([20]; 0.056 kg/ha) was 0 (0-24), the Herbicidal rating ([20]; 0.28 kg/ha) was 0 (0-24) and the Herbicidal rating ([20]; 1.12 kg/ha) was 0 (0-24). For the same compound, the Herbicidal rating ([20]; 5.6 kg/ha) was 3 (75-100), the Herbicidal rating ([21]; 0.056 kg/ha) was 0 (0-24) and the Herbicidal rating ([21]; 0.28 kg/ha) was 0 (0-24). For the same compound, the Herbicidal rating ([21]; 1.12 kg/ha) was 1 (25-49), the Herbicidal rating ([21]; 5.6 kg/ha) was 2 (50-74) and the Herbicidal rating ([22]; 0.056 kg/ha) was 0 (0-24). For the same compound, the Herbicidal rating ([22]; 0.28 kg/ha) was 0 (0-24), the Herbicidal rating ([22]; 1.12 kg/ha) was 0 (0-24) and the Herbicidal rating ([22]; 5.6 kg/ha) was 0 (0-24). The Herbicidal rating ([23]; 0.056 kg/ha) was 0 (0-24), the Herbicidal rating ([23]; 0.28 kg/ha) was 0 (0-24) and the Herbicidal rating ([23]; 1.12 kg/ha) was 0 (0-24). The Herbicidal rating ([23]; 5.6 kg/ha) was 0 (0-24), the Herbicidal rating ([24]; 0.056 kg/ha) was 0 (0-24) and the Herbicidal rating ([24]; 0.28 kg/ha) was 0 (0-24). For the same compound, the Herbicidal rating ([24]; 1.12 kg/ha) was 0 (0-24), the Herbicidal rating ([24]; 5.6 kg/ha) was 0 (0-24) and the Herbicidal rating ([25]; 0.056 kg/ha) was 0 (0-24). For the same compound, the Herbicidal rating ([25]; 0.28 kg/ha) was 0 (0-24), the Herbicidal rating ([25]; 1.12 kg/ha) was 0 (0-24) and the Herbicidal rating ([25]; 5.6 kg/ha) was 0 (0-24). The Herbicidal rating ([26]; 0.056 kg/ha) was 0 (0-24), the Herbicidal rating ([26]; 0.28 kg/ha) was 0 (0-24) and the Herbicidal rating ([26]; 1.12 kg/ha) was 0 (0-24). The Herbicidal rating ([26]; 5.6 kg/ha) was 1 (25-49), the Herbicidal rating ([27]; 0.056 kg/ha) was 0 (0-24) and the Herbicidal rating ([27]; 0.28 kg/ha) was 0 (0-24). For the same compound, the Herbicidal rating ([27]; 1.12 kg/ha) was 0 (0-24) and the Herbicidal rating ([27]; 5.6 kg/ha) was 0 (0-24).
